Data set [1] relates to HIV-1. The conditions noted are these: cited from earlier work.
Data set [2] deals with HIV-1. Put plainly: HIV-1 replication in acutely infected H9 lymphocytes (p24 antigen ELISA). Also on record: TI50: unit not given beside the values. The class given is cell-based, HIV-1 (IIIB isolate). On the procedure: The cell lines were used in experiments only when in the logarithmic phase of growth, whereas uninfected peripheral blood mononuclear cells (PBMCs) were first stimulated with PHA (1 μg/mL) for three days. […] The cell lines and PBMCs were washed thoroughly to remove unadsorbed virions and resuspended at 4×10^5 cells/ml in complete medium or complete medium with 10% v/v interleukin 2 (IL-2), respectively. One ml. aliquots were placed into wells of 24-well culture plates containing an equal volume of test compounds (diluted in the appropriate culture medium). The toxicity of each compound was assessed by determining the number of compound-exposed uninfected cells that remained after four days at 37° C. and 5% CO2. A p24 antigen ELISA assay was used to determine the level of virus released in the medium of the HIV-infected cultures. The p24 antigen assay used a HIV-1 anti-p24 specific monoclonal antibody as the capture antibody coated onto 96-well plates. […] P24 in the culture medium was quantitated against a standard curve containing known amounts of p24. The effective (EC50) and inhibitory (IC50) concentrations for anti-HIV activity and cytotoxicity, respectively, were determined.
^a Concentration which inhibits viral replication in H9 cells by 50%

In data set [3] the target is T1, HIV-1 reverse transcriptase (Human immunodeficiency virus type 1 group M subtype B, UniProt P04585).
T1 construct: virion associated HIV-1 IIIB reverse transcriptase; endogenous in cells; host or cells: HIV-1 IIIB virions lysed in Triton X-100
Put plainly: HIV-1 reverse transcriptase assay. The class given is biochemical, HIV-1 IIIB. On the procedure:
Ten microliters of virion associated HIV-1 IIIB reverse transcriptase in 1% Triton X-100 was mixed with 50 microliters of a reaction cocktail containing 50 mM Tri-HCl (pH 7.8), 75 mM KCl, 2 mM dithiothreitol, 5 mM MgCl2, 5 mg/ml poly (A) [Pharmacia], 0.25 unit/ml oligo(dT)[Pharmacia]; 0.05% Nonidet P40 and 10 mCi/ml ^32 P-dTTP in the presence of various concentrations of test compound. After incubating for one hour at 37° C., 40 microliters of the reaction mixture was applied to a Schleicher & Schuell NA 45 membrane saturated with […] (0.3M NaCl, 30 mM sodium citrate, pH 7.0) in a Schleicher & Schuell Minifold over one sheet of GB003 filter paper. Each well of the minifold was washed four times with 2×SSC. Autoradiography was performed, and radioactivity was quantified with a Packard Matrix (Meriden, Conn.) 9600 direct beta counter.

In data set [4] the test system is HIV induced membrane fusion. The experiment in a line: cells. The format is cell-based, HIV-1LAI. As to conditions: for IC100: Human immunodeficiency virus 1, CEM-4, 24 h, read-out: Fusion Assay IC100. As for the experimental part:
MOLT-4 cells (7×10^4) were incubated with HIV-1LAI chronically infected CEM cells (10^4) in 96-well half-area flat-bottomed plates (Costar) in 100 microliters culture medium were incubated with the cell mixtures at 37° C. for 24 hours. Multinucleated syncytia were enumerated by microscopic examination of the entire contents of each well.

In data set [5] the test system is HIV-1. Put plainly: HIV-1 replication in PHA-stimulated PBMCs (p24 antigen ELISA). The class given is cell-based, HIV-1 (IIIB isolate). Also noted: TI50: unit not given beside the values. As to conditions: for EC50: Human immunodeficiency virus 1, PBMC. As for the experimental part:
The T cell line, H9, and the promonocytic cell line, U937, were maintained separately in continuous culture with complete medium (RPMI 1640 with 10% fetal calf serum) at 5% CO2 and 37° C. The cell lines were used in experiments only when in the logarithmic phase of growth, whereas uninfected peripheral blood mononuclear cells (PBMCs) were first stimulated with PHA (1 μg/mL) for three days. All cell targets were incubated with HIV-1 (IIIB isolate, TCID50 10^4 IU/ml, at a multiplicity of infection of 0.01-0.01 IU/cell) for one hour at 37° C. and 5% CO2. The cell lines and PBMCs were washed thoroughly to remove unadsorbed virions and resuspended at 4×10^5 cells/ml in complete medium or complete medium with 10% v/v interleukin 2 (IL-2), respectively. One ml. aliquots were placed into wells of 24-well culture plates containing an equal volume of test compounds (diluted in the appropriate culture medium). The toxicity of each compound was assessed by determining the number of compound-exposed uninfected cells that remained after four days at 37° C. and 5% CO2. A p24 antigen ELISA assay was used to determine the level of virus released in the medium of the HIV-infected cultures. The p24 antigen assay used a HIV-1 anti-p24 specific monoclonal antibody as the capture antibody coated onto 96-well plates. Following a sample incubation period, rabbit serum containing antibodies for HIV-1 p24 was used to tag any p24 "captured: onto the microtiter well surface. Peroxidase conjugated goat anti-rabbit serum was then used to tag HIV-1 p24 specific rabbit antibodies that had complexed with captured p24. […] The cutoff for the p24 ELISA assay was 12.5 pg/ml. P24 in the culture medium was quantitated against a standard curve containing known amounts of p24. The effective (EC50) and inhibitory (IC50) concentrations for anti-HIV activity and cytotoxicity, respectively, were determined.
In general terms: In an ELISA, binding on a coated surface is turned into a signal by an enzyme label.

Data set [6] relates to cells of the fusion assay. Put plainly: Cytotoxicity noted in the fusion assay. The format is cell-based. As to conditions: Table 1 footnotes; one-day fusion assay. On the procedure:
Cell fusions were performed as described in Matthews et al., Proc. Natl. Acad. Sci. USA, 1987, 84, 5424-5428. MOLT-4 cells (7×10^4) were incubated with HIV-1LAI chronically infected CEM cells (10^4) in 96-well half-area flat-bottomed plates (Costar) in 100 microliters culture medium were incubated with the cell mixtures at 37° C. for 24 hours. Multinucleated syncytia were enumerated by microscopic examination of the entire contents of each well.
^d No noticeable cytotoxicity at 100 μg/mL
^e Toxic to the cells at 80 μg/mL in oneday fusion assay
^f Toxic at 40 μg/mL under the assay conditions

[7] abbreviates: earlier data, H9 lymphocyte cells.
Setting [8] is: earlier data, HIV-1 replication in H9 lymphocyte cells.
Where [9] appears, read: Human immunodeficiency virus 1, H9, Table 1, inhibits viral replication in H9 cells by 50%, read-out: EC50.
Where [10] appears, read: Table 1, H9 cells, therapeutic index.
Setting [11] is: Table 1, inhibit 50% of HIV-1 RT activity, read-out: HIV-RT Assay IC50.
Setting [12] is: Human immunodeficiency virus 1, Lymphocyte, acutely infected H9 lymphocytes.
The mark [13] stands for this setting: acutely infected H9 lymphocytes.
Setting [14] is: Human immunodeficiency virus 1, Lymphocyte, Table 2, H9.

Each structure is given as a SMILES string. Where two headings read alike, the source gives them in different places.

As a reminder, the EC50 is the concentration at which the effect is half-maximal. `CC(=O)[C@@H]1CC[C@]2(C(=O)O)CC[C@]3(C)[C@H](CC[C@@H]4[C@@]5(C)CC[C@H](O)C(C)(C)[C@@H]5CC[C@]43C)[C@@H]12` [platanic acid]: the T.I. in data set [1] (setting [7]) is given as 14. For the same compound, in data set [1] (setting [8]), the EC50 is 6500 nM.

Usually IC50 stands for the concentration that gives 50% inhibition. Take `CC(C)[C@@H]1CC[C@]2(C(=O)O)CC[C@]3(C)[C@H](CC[C@@H]4[C@@]5(C)CC[C@H](OC(=O)CC(C)(C)CC(=O)O)C(C)(C)[C@@H]5CC[C@]43C)[C@@H]12` [Compound 9, 3-O-(3',3'-dimethylglutaryl)-dihydrobetulinic acid]: the EC50 was found to be 5.7 nM in data set [2] (setting [9]); 0.0175 µg/mL in data set [5]; 29.2 nM in data set [5] (PHA-stimulated PBMCs, read-out: EC50). For the same compound, the T.I. in data set [2] (setting [10]) is listed as 1,017.0. Further, the IC50 in data set [3] (setting [11]) was over 166000 nM. Moreover, the IC100 in data set [4] turned out to be 20 µg/mL. Further, the “T.I. values in PBMCs compared with H9 cells” value in data set [5] (PBMCs versus H9 cells) is recorded as “lower than those in H9 cells”. The compound further yielded a TI50 in data set [5] (Table 2, PBMCs) of 229. Further, the “cytotoxicity in fusion assay (footnotes d, e, f)” value (“cytotoxicity in fusion assay” for short) in data set [6] is “f (Toxic at 40 μg/mL under the assay conditions)”.

With `CC(C)[C@@H]1CC[C@]2(C(=O)O)CC[C@]3(C)[C@H](CC[C@@H]4[C@@]5(C)CC[C@H](O)C(C)(C)[C@@H]5CC[C@]43C)[C@@H]12` [Compound 6, dihydrobetulinic acid, reference compound], the EC50 is 900 nM in data set [2] (setting [9]) and 900 nM in data set [1] (earlier data, anti-HIV activity, unit inferred). The T.I. in data set [2] (setting [10]) is given as 14.0; in data set [1] (setting [7]), 14. Moreover, the IC50 in data set [3] is over 218000 nM. Moreover, in data set [4], the IC100 was over 100 µg/mL.

As for `C=C(C)[C@@H]1CC[C@]2(C(=O)O)CC[C@]3(C)[C@H](CC[C@@H]4[C@@]5(C)CC[C@H](OC(=O)C(C)(C)CC(=O)O)C(C)(C)[C@@H]5CC[C@]43C)[C@@H]12` [Compound 2, 3-O-(2',2'-dimethylsuccinyl)betulinic acid], the EC50 in data set [2] (setting [9]) and in data set [2] (setting [12]) was 2700 nM each time. The T.I. in data set [2] (setting [10]) and in data set [2] (setting [13]) was 5.9 throughout. For the same compound, the IC50 in data set [3] (setting [11]) was over 171000 nM. In addition, the IC100 in data set [4] stood at 20 µg/mL. In data set [4] (compound 3 versus compound 2), the “inhibition of syncytia formation, compounds 2 and 3 compared” value is given as “inhibited syncytia formation at the same concentration”. Moreover, the “cytotoxicity in fusion assay” value in data set [6] is reported as “d (No noticeable cytotoxicity at 100 μg/mL)”.

For `CC(C)[C@@H]1CC[C@]2(C(=O)O)CC[C@]3(C)[C@H](CC[C@@H]4[C@@]5(C)CC[C@H](OC(=O)COCC(=O)O)C(C)(C)[C@@H]5CC[C@]43C)[C@@H]12` [Compound 10, 3-O-diglycolyl-dihydrobetulinic acid], the EC50 is 5.6 nM in data set [2] (setting [9]) and 0.0032 µg/mL in data set [2] (setting [14]). Also, in data set [2] (setting [10]), the T.I. is recorded as 2,344.0. Also, in data set [2] (Table 2, H9), the TI50 is 2,344. The IC50 in data set [3] (setting [11]) is over 174000 nM. In addition, in data set [4], the IC100 came to 40 µg/mL. For the same compound, the “cytotoxicity in fusion assay” value in data set [6] is “e (Toxic to the cells at 80 μg/mL in oneday fusion assay)”.

Take `C=C(C)[C@@H]1CC[C@]2(C(=O)O)CC[C@]3(C)[C@H](CC[C@@H]4[C@@]5(C)CC[C@H](OC(=O)COCC(=O)O)C(C)(C)[C@@H]5CC[C@]43C)[C@@H]12` [Compound 5, 3-O-diglycolyl-betulinic acid]: the results for the EC50 in data set [2] (setting [9]) and in data set [2] (setting [14]) were 10 nM and 0.01 µg/mL, respectively. Further, the T.I. in data set [2] (setting [10]) is reported as 1,172.0. Further, the TI50 in data set [2] (Table 2, H9) is listed as 1,500. Further, the IC50 in data set [3] (setting [11]) was over 175000 nM. Besides, the IC100 in data set [4] was 40 µg/mL. Also, in data set [6], the “cytotoxicity in fusion assay” value is recorded as “e (Toxic to the cells at 80 μg/mL in oneday fusion assay)”.

On to `CC1(C)Oc2ccc3ccc(=O)oc3c2[C@@H](OC(=O)[C@@]23CC[C@@](C)(C(=O)O2)C3(C)C)[C@H]1OC(=O)[C@@]12CC[C@@](C)(C(=O)O1)C2(C)C` [DCK, 3',4'-di-O-(-)-camphanoyl-(+)-cis-khellactone], for which, in data set [1] (H9 lymphocyte cells, background), the “therapeutic index (T.I.)” value is on record as 136,719. Also, the half-maximal effective concentration (EC50) in data set [1] (HIV replication in H9 lymphocyte cells, background) was 0.4 nM.

Consider `C=C(C)[C@@H]1CC[C@]2(C(=O)O)CC[C@]3(C)[C@H](CC[C@@H]4[C@@]5(C)CC[C@H](OC(=O)CC(C)(C)C(=O)O)C(C)(C)[C@@H]5CC[C@]43C)[C@@H]12` [Compound 3, 3-O-(3',3'-dimethylsuccinyl)-betulinic acid], for which the EC50 in data set [2] (Human immunodeficiency virus 1, Lymphocyte) was under 0.017 nM. Also, in data set [6], the “cytotoxicity in fusion assay” value is listed as “d (No noticeable cytotoxicity at 100 μg/mL)”.

`C=C(C)[C@@H]1CC[C@]2(C(=O)O)CC[C@]3(C)[C@H](CC[C@@H]4[C@@]5(C)CC[C@H](O)C(C)(C)[C@@H]5CC[C@]43C)[C@@H]12` [Compound 1, betulinic acid, reference compound]: the EC50 in data set [2] (setting [9]) and in data set [1] (setting [8]) was 1400 nM in each case. In data set [3] (setting [11]), the IC50 was over 219000 nM. Moreover, in data set [4], the IC100 is over 100 µg/mL.

As for `CC(C)[C@@H]1CC[C@]2(C(=O)O)CC[C@]3(C)[C@H](CC[C@@H]4[C@@]5(C)CC[C@H](OC(=O)C(C)(C)CC(=O)O)C(C)(C)[C@@H]5CC[C@]43C)[C@@H]12` [Compound 7, 3-O-(2',2'-dimethylsuccinyl)-dihydrobetulinic acid], the EC50 in data set [2] (setting [9]) and in data set [2] (setting [12]) was 560 nM throughout. The T.I. in data set [2] (setting [10]) and in data set [2] (setting [13]) was 13.8 in each case.

Consider `C=C(C)[C@@H]1CC[C@]2(C(=O)O)CC[C@]3(C)[C@H](CC[C@@H]4[C@@]5(C)CC[C@H](OC(=O)CC(C)(C)CC(=O)O)C(C)(C)[C@@H]5CC[C@]43C)[C@@H]12` [Compound 4, 3-O-(3',3'-dimethylglutaryl)-betulinic acid], for which, in data set [3] (setting [11]), the half-inhibitory concentration (IC50) was over 167000 nM. The IC100 in data set [4] was 30 µg/mL. The “cytotoxicity in fusion assay” value in data set [6] is “d (No noticeable cytotoxicity at 100 μg/mL)”.

The values above are taken from patent US5679828A (priority 1995, dated 1997).
